According to patent publication US11414378B2, “Anti-fungals compounds targeting the synthesis of fungal sphingolipids” (THE RESEARCH FOUNDATION FOR THE STATE UNIVERSITY OF NEW YORK, priority 2017, dated 2022):
≈ marks a conversion by molar mass, not a printed value.

Tested on: C. neoformans
Assay: In vitro susceptibility (MIC80) assay
Type: cell-based
Conditions: Cryptococcus neoformans; lowest concentration that inhibited 80% of growth; YNB pH 7.0, HEPES, 37° C., 5% CO2
Protocol: MICs was determined following the methods of the Clinical and Laboratory Standards Institutes (CLSI) with modifications. Yeast Nitrogen Base (YNB) medium (pH 7.0, 0.2% glucose) buffered with HEPES was used for MIC studies. […] The compound was serially diluted from 16 to 0.03 μg/ml, in a 96-well plate. The inoculum was prepared as described in the CLSI protocol M27A3 guidelines. The plates were incubated at 37° C. with 5% CO2 for 24 to 72 h and the optical density was measure at 450 nm. The MICs was determined as the lowest concentration of the compound that inhibited 80% of growth compared to the control.

MIC80	Structure (SMILES)
0.25 mg/L (≈ 0.62 µM)	O=C(N/N=C/c1cc(OC(F)(F)F)ccc1O)c1ccc(Br)cc1 [Compound A1, 4-Bromo-N′-(2-hydroxy-5-trifluoromethoxybenzylidene)benzohydrazide]
1 mg/L (≈ 2.97 µM)	O=C(N/N=C/c1cc(F)ccc1O)c1ccc(Br)cc1 [Compound A2, 4-Bromo-N′-(5-fluoro-2-hydroxybenzylidene)benzohydrazide]
0.25 mg/L (≈ 0.519 µM)	O=C(N/N=C/c1cc(OC(F)(F)F)ccc1O)c1ccc(Br)cc1Br [Compound A3, 2,4-Dibromo-N′-(2-hydroxy-5-trifluoromethoxybenzylidene)benzohydrazide]
1 mg/L (≈ 2.4 µM)	O=C(N/N=C/c1cc(F)ccc1O)c1ccc(Br)cc1Br [Compound A4, 2,4-Dibromo-N′-(5-fluoro-2-hydroxybenzylidene)benzohydrazide]
0.12 mg/L (≈ 0.312 µM)	O=C(N/N=C/c1cc(Br)ccc1O)c1cccc(OC(F)F)c1 [Compound A5, 3-Difluoromethoxy-N′-(5-bromo-2-hydroxybenzylidene)benzohydrazide]
0.12 mg/L (≈ 0.259 µM)	O=C(N/N=C/c1cc(Br)cc(Br)c1O)c1cccc(OC(F)F)c1 [Compound A6, 3-Difluoromethoxy-N′-(3,5-dibromo-2-hydroxybenzylidene)benzohydrazide]
0.5 mg/L (≈ 1.24 µM)	O=C(N/N=C/c1cc(Br)ccc1O)c1ccc(OC(F)(F)F)cc1 [Compound A7, 4-Trifluoromethoxy-N′-(5-bromo-2-hydroxybenzylidene)benzohydrazide]
0.5 mg/L (≈ 1.23 µM)	O=C(N/N=C/c1cc(Br)ccc1O)c1ccc(C(F)(F)F)cc1F [Compound A8, 2-Fluoro-4-trifluoromethyl-N′-(5-bromo-2-hydroxybenzylidene)benzohydrazide]
0.12 mg/L (≈ 0.248 µM)	O=C(N/N=C/c1cc(Br)cc(Br)c1O)c1ccc(C(F)(F)F)cc1F [Compound A9, 2-Fluoro-4-trifluoromethyl-N′-(3,5-dibromo-2-hydroxybenzylidene)benzohydrazide]
0.25 mg/L (≈ 0.557 µM)	O=C(N/N=C/c1cc(Br)cc(Br)c1O)c1cnc2ccccc2c1 [Compound A10, N′-(3,5-dibromo-2-hydroxybenzylidene) quinolinylhydrazide]
0.06 mg/L (≈ 0.142 µM)	N#Cc1ccc(C(=O)N/N=C/c2cc(Br)cc(Br)c2O)cc1 [Compound A11, 4-Cyano-N′-(3,5-dibromo-2-hydroxybenzylidene)benzohydrazide]
0.5 mg/L (≈ 1.19 µM)	O=C(N/N=C/c1cc(Br)ccc1O)c1ccc(OC(F)(F)F)cc1F [Compound A12, 2-Fluoro-4-trifluoromethoxy-N′-(5-bromo-2-hydroxybenzylidene)benzohydrazide]
0.06 mg/L (≈ 0.12 µM)	O=C(N/N=C/c1cc(Br)cc(Br)c1O)c1ccc(OC(F)(F)F)cc1F [Compound A13, 2-Fluoro-4-trifluoromethoxy-N′-(3,5-dibromo-2-hydroxybenzylidene)-benzohydrazide]
0.5 mg/L (≈ 1.29 µM)	O=C(N/N=C/c1cc(C(F)(F)F)ccc1O)c1cccc(Br)c1 [Compound A14, 3-Bromo-N′-(2-hydroxy-5-trifluoromethylbenzylidene)benzohydrazide]
0.25 mg/L (≈ 0.69 µM)	CN(C)c1ccc(C(=O)N/N=C/c2ccc(Br)cc2O)cc1 [Compound A16]
0.25 mg/L (≈ 0.584 µM)	Cc1ccc(O)c(/C=N/NC(=O)c2cc(Br)cc(Br)c2O)c1 [Compound A17, 3,5-Dibromo-2-hydroxy-N′-(5-methyl-2-hydroxyphenylmethylidene)benzohydrazide]
0.25 mg/L (≈ 0.507 µM)	O=C(N/N=C/c1ccc(Br)cc1O)c1cc(Br)cc(Br)c1O [Compound A18, 3,5-Dibromo-2-hydroxy-N′-(4-bromo-2-hydroxybenzylidene)benzohydrazide]
0.12 mg/L (≈ 0.312 µM)	O=C(N/N=C/c1ccc(Br)cc1O)c1ccc(OC(F)F)cc1 [Compound A21, 4-Difluoromethoxy-N′-(4-bromo-2-hydroxybenzylidene)benzohydrazide]
0.25 mg/L (≈ 0.649 µM)	O=C(N/N=C/c1cc(Br)ccc1O)c1ccc(OC(F)F)cc1 [Compound A22, 4-Difluoromethoxy-N′-(5-bromo-2-hydroxybenzylidene)benzohydrazide]
0.12 mg/L (≈ 0.259 µM)	O=C(N/N=C/c1cc(Br)cc(Br)c1O)c1ccc(OC(F)F)cc1 [Compound A23, 4-Difluoromethoxy-N′-(3,5-dibromo-2-hydroxybenzylidene)benzohydrazide]

Tested on: C. neoformans cells
Assay: In vitro killing activity (K100) assay
Type: cell-based, Cryptococcus neoformans
Conditions: Cryptococcus neoformans; minimum concentration that kills 100% of C. neoformans cells in 48 h
Protocol: C. neoformans cells from a culture grown overnight were washed in PBS and resuspended in YNB buffered with HEPES at pH 7.4. The cells were counted, and 2×10^4 cells were incubated with different concentration of compounds in a final volume of 10 ml with a final concentration of 0.5% DMSO. The tubes were then incubated at 37° C. with 5% CO2 on a rotary shaker at 200 rpm. Aliquots were taken at time points and diluted, and […] were plated onto Yeast Extract-Peptone-Dextrose (YPD) plates. YPD plates were incubated in a 30° C. incubator and after 48 h, the numbers of CFU were counted and recorded.

Structure (SMILES)	MFC
O=C(N/N=C/c1cc(OC(F)(F)F)ccc1O)c1ccc(Br)cc1 [Compound A1, 4-Bromo-N′-(2-hydroxy-5-trifluoromethoxybenzylidene)benzohydrazide]	> 1 mg/L
O=C(N/N=C/c1cc(F)ccc1O)c1ccc(Br)cc1 [Compound A2, 4-Bromo-N′-(5-fluoro-2-hydroxybenzylidene)benzohydrazide]	> 4 mg/L
O=C(N/N=C/c1cc(OC(F)(F)F)ccc1O)c1ccc(Br)cc1Br [Compound A3, 2,4-Dibromo-N′-(2-hydroxy-5-trifluoromethoxybenzylidene)benzohydrazide]	2 mg/L (≈ 4.15 µM)
O=C(N/N=C/c1cc(F)ccc1O)c1ccc(Br)cc1Br [Compound A4, 2,4-Dibromo-N′-(5-fluoro-2-hydroxybenzylidene)benzohydrazide]	> 4 mg/L
O=C(N/N=C/c1cc(Br)cc(Br)c1O)c1cccc(OC(F)F)c1 [Compound A6, 3-Difluoromethoxy-N′-(3,5-dibromo-2-hydroxybenzylidene)benzohydrazide]	0.5 mg/L (≈ 1.08 µM)
O=C(N/N=C/c1cc(Br)ccc1O)c1ccc(OC(F)(F)F)cc1 [Compound A7, 4-Trifluoromethoxy-N′-(5-bromo-2-hydroxybenzylidene)benzohydrazide]	> 4 mg/L
O=C(N/N=C/c1cc(Br)ccc1O)c1ccc(C(F)(F)F)cc1F [Compound A8, 2-Fluoro-4-trifluoromethyl-N′-(5-bromo-2-hydroxybenzylidene)benzohydrazide]	1 mg/L (≈ 2.47 µM)
O=C(N/N=C/c1cc(Br)cc(Br)c1O)c1ccc(C(F)(F)F)cc1F [Compound A9, 2-Fluoro-4-trifluoromethyl-N′-(3,5-dibromo-2-hydroxybenzylidene)benzohydrazide]	0.5 mg/L (≈ 1.03 µM)
N#Cc1ccc(C(=O)N/N=C/c2cc(Br)cc(Br)c2O)cc1 [Compound A11, 4-Cyano-N′-(3,5-dibromo-2-hydroxybenzylidene)benzohydrazide]	> 1 mg/L
O=C(N/N=C/c1cc(Br)ccc1O)c1ccc(OC(F)(F)F)cc1F [Compound A12, 2-Fluoro-4-trifluoromethoxy-N′-(5-bromo-2-hydroxybenzylidene)benzohydrazide]	0.5 mg/L (≈ 1.19 µM)
O=C(N/N=C/c1cc(Br)cc(Br)c1O)c1ccc(OC(F)(F)F)cc1F [Compound A13, 2-Fluoro-4-trifluoromethoxy-N′-(3,5-dibromo-2-hydroxybenzylidene)-benzohydrazide]	0.5 mg/L (≈ 1 µM)
O=C(N/N=C/c1cc(C(F)(F)F)ccc1O)c1cccc(Br)c1 [Compound A14, 3-Bromo-N′-(2-hydroxy-5-trifluoromethylbenzylidene)benzohydrazide]	> 2 mg/L
CN(C)c1ccc(C(=O)N/N=C/c2ccc(Br)cc2O)cc1 [Compound A16]	> 1 mg/L
Cc1ccc(O)c(/C=N/NC(=O)c2cc(Br)cc(Br)c2O)c1 [Compound A17, 3,5-Dibromo-2-hydroxy-N′-(5-methyl-2-hydroxyphenylmethylidene)benzohydrazide]	0.25 mg/L (≈ 0.584 µM)
O=C(N/N=C/c1ccc(Br)cc1O)c1cc(Br)cc(Br)c1O [Compound A18, 3,5-Dibromo-2-hydroxy-N′-(4-bromo-2-hydroxybenzylidene)benzohydrazide]	0.25 mg/L (≈ 0.507 µM)

Same assay, conditions: minimum concentration that kills 100% of C. neoformans cells in 48 h

Structure (SMILES)	K100* (μg/mL)
O=C(N/N=C/c1cc(Br)ccc1O)c1cccc(OC(F)F)c1 [Compound A5, 3-Difluoromethoxy-N′-(5-bromo-2-hydroxybenzylidene)benzohydrazide]	Fungistatic
O=C(N/N=C/c1cc(Br)cc(Br)c1O)c1cnc2ccccc2c1 [Compound A10, N′-(3,5-dibromo-2-hydroxybenzylidene) quinolinylhydrazide]	Fungistatic
